According to US11214540B2, “Compositions for treating neurodegenerative diseases” (COGNITION THERAPEUTICS, INC., priority 2017, dated 2022):
Like-named read-outs stand apart in the source and are kept apart here.

Key:
[1] = tested on: Abeta oligomer-induced membrane trafficking deficits in primary hippocampal neurons; assay: Membrane Trafficking/Exocytosis (MTT) assay, Abeta oligomer effect on neurons; assay type: cell-based, rat; settings: membrane trafficking, read-out: EC50 Abeta;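 also: compound potency for inhibiting the Abeta oligomer effect on exocytosis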
In short: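 Rat E18 hippocampal neurons cultured 3 weeks received compound (100 uM to 0.001 nM), then vehicle or Abeta 1-42 oligomers (3 μM total Abeta), for 1-24 h at 37 °C. MTT was added for 1 h, and formazan vesicle exocytosis was quantified by automated imaging with DAPI toxicity check. Tukey-Kramer comparisons were made with N=4.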

log P = assay type: physicochemical; settings: for logP: octanol/water
In short: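 Ratio of un-ionized compound concentrations between octanol and water, with aqueous pH set so the un-ionized form predominates. Value given as the log of the octanol/water ratio.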

[2] = target: Sigma-2 receptors on membranes from rat cerebral cortex (Rattus norvegicus (Rat), UniProt Q5U3Y7); assay: Competitive Radioligand Binding Assay 1, Sigma-2 binding ([3H]DTG displacement with (+)pentazocine mask); settings: sigma-2 receptor affinity; read-out: S2 Ki
Chain of Sigma-2 receptors on membranes from rat cerebral cortex (Q5U3Y7 whole entry): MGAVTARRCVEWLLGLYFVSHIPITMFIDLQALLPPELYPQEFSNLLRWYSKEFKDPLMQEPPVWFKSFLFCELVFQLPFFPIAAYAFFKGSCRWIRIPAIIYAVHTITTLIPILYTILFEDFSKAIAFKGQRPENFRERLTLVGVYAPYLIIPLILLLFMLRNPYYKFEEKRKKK
Description: Using the same protocol, some compounds for which membrane trafficking data are given in Table 1 were tested for recognition of sigma-2 receptor. Certain compounds preferentially bind to the sigma-2 receptor.
(§1) For Sigma-1 binding, various concentrations of test compounds from 100 μM to 1 nM were used to displace 8 nM [3H](+)pentazocine from endogenous receptors on Jurkat cell membranes (Ganapathy M E et al. 1991, J Pharmacol. Exp. Ther. 289:251-260). 10 μM Haloperidol was used to define non-specific binding. […] (Bowen W D, et al. 1993, Mol. Neuropharmcol 3:117-126). 10 μM Haloperidol was used to define non-specific binding. Reactions were terminated by rapid filtration through Whatman GF/C filters using a Brandel 12R cell harvester followed by two washes with ice-cold buffer. Radioactivity on the dried filter discs was measured using a liquid scintillation analyzer (Tri-Carb 2900TR; PerkinElmer Life and Analytical Sciences). The displacement curves were plotted and the Ki values of the test compounds for the receptor subtypes were determined using GraphPad Prism (GraphPad Software Inc., San Diego, Calif.). The percentage specific binding was determined by dividing the difference between total bound (disintegrations per minute) and nonspecific bound (disintegrations per minute) by the total bound (disintegrations per minute).
Affinities for Sigma-1 and Sigma-2 receptors are typically obtained from published studies using cerebral tissue homogenates with [3H](+)pentazocine to measure displacement from Sigma-1 receptors and [3H] 1,3-Di-(2-tolyl)guanidine in the presence of 300 nM (+)pentazocine to measure displacement from Sigma-2 receptors.

[3] = Mouse liver microsome (MLM) stability; assay type: in vitro ADME; settings: microsomal stability in mouse liver microsomes (MLM)
Description: A first pharmacokinetic study was performed in microsomes of mice mouse liver microsomes, MLM).
Microsomal stability experiments and plasma stability experiments were performed to determine metabolic and hepatic stability of candidate compounds.

potassium channel hERG = potassium channel hERG (Homo sapiens (Human), UniProt Q12809); assay: In vitro testing for hERG inhibition; assay type: biochemical; settings: in vitro toxicity potassium channel hERG
Chain of potassium channel hERG (Q12809 whole entry): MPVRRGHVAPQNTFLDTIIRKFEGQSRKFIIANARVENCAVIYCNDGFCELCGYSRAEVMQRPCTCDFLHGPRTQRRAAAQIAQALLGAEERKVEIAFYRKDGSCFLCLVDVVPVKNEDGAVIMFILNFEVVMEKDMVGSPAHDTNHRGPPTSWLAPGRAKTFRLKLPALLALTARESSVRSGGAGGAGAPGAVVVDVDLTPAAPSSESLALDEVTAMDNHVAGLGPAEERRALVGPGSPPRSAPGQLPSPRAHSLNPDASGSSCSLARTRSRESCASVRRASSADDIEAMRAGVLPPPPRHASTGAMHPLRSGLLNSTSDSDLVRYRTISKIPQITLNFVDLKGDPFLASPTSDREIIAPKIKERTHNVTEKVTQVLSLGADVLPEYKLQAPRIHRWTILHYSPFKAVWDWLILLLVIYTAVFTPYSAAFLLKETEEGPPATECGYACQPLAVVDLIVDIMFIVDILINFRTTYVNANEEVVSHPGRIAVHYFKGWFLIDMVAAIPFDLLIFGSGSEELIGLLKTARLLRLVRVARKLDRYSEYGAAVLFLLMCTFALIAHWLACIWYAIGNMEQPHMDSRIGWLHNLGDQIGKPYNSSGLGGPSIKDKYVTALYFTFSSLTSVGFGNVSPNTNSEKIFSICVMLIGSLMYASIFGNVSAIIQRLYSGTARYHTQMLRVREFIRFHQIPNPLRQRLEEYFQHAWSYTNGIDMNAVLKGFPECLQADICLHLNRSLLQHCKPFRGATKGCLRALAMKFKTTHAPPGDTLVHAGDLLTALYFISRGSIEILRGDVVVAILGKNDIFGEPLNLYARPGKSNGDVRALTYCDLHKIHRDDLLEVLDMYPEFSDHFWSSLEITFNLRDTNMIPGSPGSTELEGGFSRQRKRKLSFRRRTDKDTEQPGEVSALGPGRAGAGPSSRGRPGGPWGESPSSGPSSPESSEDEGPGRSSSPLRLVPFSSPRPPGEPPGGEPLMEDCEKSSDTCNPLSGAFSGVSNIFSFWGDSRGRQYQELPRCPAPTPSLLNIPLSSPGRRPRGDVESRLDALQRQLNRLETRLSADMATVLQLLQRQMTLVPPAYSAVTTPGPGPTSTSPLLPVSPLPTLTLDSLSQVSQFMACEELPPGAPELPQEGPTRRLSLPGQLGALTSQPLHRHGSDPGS
Description: In vitro testing for hERG inhibition was performed in a standard assay (See: Haverkamp W, Breithardt G, Carnm A J, Janse M J, Rosen M R, Antzelevitch C, Escande D, Franz M, Malik M, Moss A and Shah R. (2000) Eur Heat J 21 (15); 1216-31).

[4] = target: Sigma-1 receptors on Jurkat cell membranes (Homo sapiens (Human), UniProt Q99720); assay: Competitive Radioligand Binding Assay 1, Sigma-1 binding ([3H](+)pentazocine displacement); settings: sigma-1 receptor affinity; read-out: S1 Ki
Chain of Sigma-1 receptors on Jurkat cell membranes (Q99720 whole entry): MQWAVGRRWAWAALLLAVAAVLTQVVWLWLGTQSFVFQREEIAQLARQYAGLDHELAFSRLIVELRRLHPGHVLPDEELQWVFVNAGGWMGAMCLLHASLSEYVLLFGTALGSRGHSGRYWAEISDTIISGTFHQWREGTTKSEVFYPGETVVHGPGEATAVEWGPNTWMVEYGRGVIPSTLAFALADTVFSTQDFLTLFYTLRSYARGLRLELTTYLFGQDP
Description: Certain compounds were tested for interaction with several receptors by blocking the binding or action of their agonists or antagonists. Some compounds were tested to see whether they interact directly with known cellular receptor or signaling proteins. Compounds can be tested for the ability to displace binding of known agonists or antagonists of a given human receptor that was overexpressed in cell lines or isolated from tissue. Compounds can also be tested for the ability to block downstream signaling induced by agonists or antagonists of a given human receptor. Compounds can be tested for action at 100 known receptors, and it is desirable that specific activity will occur at only a small subset of CNS-relevant receptors.
as §1, with “minute). […]” for “minute).”

[5] = Rattus norvegicus, Hippocampal neuron

Row | SMILES | EC50 [1] | log P (log P) | Ki [2] | MLM T1/2 [3] | IC50 (potassium channel hERG) | Ki [4] | EC50 [1, 5] | logP (log P)
1 | CC(C)=CC(CC(C)(C)c1ccc(Cl)cc1)N1CCC(C2CCOCC2)CC1 (stereo not drawn) [Compound 11] | 3 µM | 6.31 | 0.0022 µM | 26, min. | 1.5 µM |  |  | 
2 | CC(C)=CC(CCc1ccc(F)cc1)N1CCC(C2CCOCC2)CC1 (stereo not drawn) [Compound 21] | 20 µM | 5.26 | 0.0062 µM | 11 min | 0.83 µM | 0.008 µM |  | 
3 | COCCCC1CCN(C(C=C(C)C)CC(C)(C)c2ccc(Cl)cc2)CC1 (stereo not drawn) [Compound 23] | 0.95 µM | 6.49 | 0.0092 µM | 8.2 min | 2.2 µM | 0.14 µM |  | 
4 | CC(C)=CC(CC(C)(C)c1ccc(C(F)(F)F)cc1)N1CCC(CCO)CC1 (stereo not drawn) [Compound 28] | 4 µM | 5.68 | 0.018 µM | 60 min | 10.2 µM | 0.0061 µM |  | 
5 | CC(C)=CC(CC(C)(C)c1ccc(Cl)cc1)N1CCC(C)(C)CC1 (stereo not drawn) [Compound 31] | 0.7 µM | 6.7 | 0.028 µM | 21 min | 10.9 µM | 0.041 µM |  | 
6 | CC(C)=CC(CC(C)(C)c1ccc(C(F)(F)F)cc1)N1CCC(CO)CC1 (stereo not drawn) [Compound 35] | 20 µM | 5.31 | 0.039 µM | 60 min | 13.4 µM | 0.056 µM |  | 
7 | CC(C)=CC(CC(C)(C)c1ccc(F)cc1)N1CCC2(CCOCC2)CC1 (stereo not drawn) [Compound 36] | 20 µM | 5.41 | 0.04 µM | 25 min | 10 µM | 0.012 µM |  | 
8 | CC(C)=CC(CC(C)(C)c1ccc(C(F)(F)F)cc1)N1CCC(O)CC1 (stereo not drawn) [Compound 38] | 4.5 µM | 4.85 | 0.042 µM | 84 min | 16.2 µM | 0.19 µM |  | 
9 | CCOC1CCN(C(C=C(C)C)CC(C)(C)c2ccc(F)cc2)CC1 (stereo not drawn) [Compound 59] | 0.25 µM | 5.12 | 0.16 µM |  | 73 µM | 0.6 µM |  | 
10 | CC(=O)N1CCN(C(C=C(C)C)CC(C)(C)c2ccc(Cl)cc2)CC1 (stereo not drawn) [Compound 75] | 0.25 µM | 4.33 | 0.69 µM |  | 15 µM | 0.69 µM |  | 
11 | CC(C)=C[C@@H](CC(C)(C)c1ccc(C(F)(F)F)cc1)N1CCC[C@@H]1CO [Compound 83] | 3.8 µM | 5.31 | 1 µM |  | 14 µM | 1 µM |  | 
12 | COC[C@H]1CCCN1C(C)CC(C)(C)c1ccc(Cl)cc1 (stereo partly drawn) [Compound 84] | 0.25 µM | 4.67 | 1 µM |  | 3.9 µM | 1 µM |  | 
13 | CC(C)=CC(CCc1ccc(C)cc1)N1CCOCC1 (stereo not drawn) [Compound 93] | 20 µM | 4.36 |  | 3.4 min |  |  |  | 
14 | CC(C)=CC(CCc1ccc(C)cc1)N1CCCCC1 (stereo not drawn) [Compound 94] | 20 µM | 5.43 |  | 1.8 min |  |  |  | 
15 | CC(C)=CC(CCc1ccc(Cl)cc1)N1CCOCC1 (stereo not drawn) [Compound 95] | 20 µM | 4.45 |  | 1.5 min |  |  |  | 
16 | CC(C)=CC(CCc1ccc(Cl)cc1)N1CCCCC1 (stereo not drawn) [Compound 96] | 1.6 µM | 5.52 |  | 6.2 min |  |  |  | 
17 | CC(C)=CC(CC(C)(C)c1ccc(C)cc1)N1CCC2(CCOCC2)CC1 (stereo not drawn) [Compound 97] | 10 µM | 5.78 |  | 8.7 min |  |  |  | 
18 | COc1ccc(C(C)(C)CC(C=C(C)C)N2CCC3(CCOCC3)CC2)cc1 (stereo not drawn) [Compound 98] | 20 µM | 5.11 |  | 1.7 min |  |  |  | 

Row | SMILES | EC50 [1] | log P (log P) | Ki [2] | MLM T1/2 [3] | IC50 (potassium channel hERG) | Ki [4] | EC50 [1, 5] | logP (log P)
19 | COc1ccc(C(C)(C)CC(C=C(C)C)NC2CCOCC2)cc1 (stereo not drawn) [Compound 99] | 20 µM | 4.08 |  | 7.4 min |  |  |  | 
20 | CC(C)=CC(CC(C)(C)c1ccc(C)cc1)NC1CCOCC1 (stereo not drawn) [Compound 100] | 13.6 µM | 4.75 |  | 4.5 min |  |  |  | 
21 | CC(C)=CC(CC(C)(C)c1ccc(C)cc1)NCCC1CCOCC1 (stereo not drawn) [Compound 101] | 9.6 µM | 5.57 |  | 1.8 min |  |  |  | 
22 | COc1ccc(C(C)(C)CC(C=C(C)C)NCCC2CCOCC2)cc1 (stereo not drawn) [Compound 102] | 20 µM | 4.9 |  | 1.5 min |  |  |  | 
23 | COc1ccc(CCC(C=C(C)C)N2CCCCC2)cc1 (stereo not drawn) [Compound 103] | 20 µM | 4.76 |  | 1.1 min |  |  |  | 
24 | COc1ccc(CCC(C=C(C)C)N2CCOCC2)cc1 (stereo not drawn) [Compound 104] | 20 µM | 3.69 |  | 1.3 min |  |  |  | 
25 | CC(C)=CC(CCc1ccc(Cl)cc1)N1CCC(C2CCOCC2)CC1 (stereo not drawn) [Compound 105] | 20 µM | 5.72 |  | 1.3 min |  |  |  | 
26 | COc1ccc(C(C)(C)CC(C=C(C)C)NCCCC2CCOCC2)cc1 (stereo not drawn) [Compound 106] | 20 µM | 5.35 |  | 3.9 min |  |  |  | 
27 | CC(C)=CC(CC(C)(C)c1ccc(C)cc1)N1CCC2(CC1)COC2 (stereo not drawn) [Compound 107] | 20 µM | 5.21 |  | 3.5 min |  |  |  | 
28 | COc1ccc(C(C)(C)CC(C=C(C)C)N(C)C2CCOCC2)cc1 (stereo not drawn) [Compound 108] | 20 µM | 4.46 |  | 7.3 min |  |  |  | 
29 | CC(C)=CC(CC(C)(C)c1ccc(C)cc1)N(C)C1CCOCC1 (stereo not drawn) [Compound 109] | 20 µM | 5.13 |  | 5.4 min |  |  |  | 
30 | COc1ccc(C(C)(C)CC(C=C(C)C)N(C)CCCC2CCOCC2)cc1 (stereo not drawn) [Compound 110] | 20 µM | 5.73 |  | 2.6 min |  |  |  | 
31 | CC(C)=CC(CC(C)(C)c1ccc(Cl)cc1)N(C)CC1CCOCC1 (stereo not drawn) [Compound 111] | 20 µM | 5.68 |  | 6.8 min |  |  |  | 
32 | CC(C)=CC(CC(C)(C)c1ccc(C)cc1)N(C)CC1CCOCC1 (stereo not drawn) [Compound 112] |  | 5.59 |  | 4.9 min |  |  |  | 
33 | COc1ccc(C(C)(C)CC(C=C(C)C)N(C)CC2CCOCC2)cc1 (stereo not drawn) [Compound 113] | 20 µM | 4.92 |  | 8.2 min |  |  |  | 
34 | CC(C)=CC(CCc1ccc(C)cc1)N1CCC(C2CCOCC2)CC1 (stereo not drawn) [Compound 114] |  | 5.63 |  | 1.8 min |  |  |  | 
35 | CC1(O)CCN(CCC(C)(C)c2ccc(C(F)(F)F)cc2)CC1 [Example 14] |  |  | 0.003 µM |  | 18 µM | 0.0019 µM | 3.7 µM | 3.71
36 | CC(C)(CCN1CCC(O)CC1)c1ccc(C(F)(F)F)cc1 [Example 17] |  |  | 0.0051 µM |  | 11 µM | 0.0013 µM | 2.24 µM | 3.43
